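Dose response: 5 concentrations. Exposure: 48 h. Format: 96-well plates. Endpoint: linear interpolation; highest concentration if not reached. GI50: concentration for 50% inhibition of growth. TGI marks complete inhibition of growth.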
How the values were obtained:
Experiment in all cases: DTP human tumour cell line panel, 48 h
[1] = system: NCI-H460 lung
[2] = system: 786-0 renal
[3] = system: SR leukemia
[4] = system: NCI-H522 lung
[5] = system: SK-OV-3 ovarian
[6] = system: UACC-257 melanoma
[7] = system: MOLT-4 leukemia
[8] = system: MDA-MB-231 breast
[9] = system: SF-539 CNS
[10] = system: MDA-MB-435
[11] = system: HS 578T breast
[12] = system: HCC-2998 colon
[13] = system: SNB-19 CNS
[14] = system: OVCAR-4 ovarian
[15] = system: DU-145 prostate
[16] = system: ACHN renal
[17] = system: RXF 393 renal
[18] = system: LOX IMVI melanoma
[19] = system: SF-295 CNS
[20] = system: MCF7 breast
[21] = system: SK-MEL-5 melanoma
[22] = system: A549 NSCLC
[23] = system: SW-620 colon
[24] = system: T-47D breast
[25] = system: HCT-15 colon
[26] = system: U251 CNS
[27] = system: OVCAR-3 ovarian
[28] = system: HOP-62 NSCLC
[29] = system: SF-268 CNS
[30] = system: PC-3 prostate
[31] = system: TK-10 renal
[32] = system: HT29 colon
[33] = system: SK-MEL-2 melanoma
[34] = system: M14 melanoma
[35] = system: EKVX NSCLC
[36] = system: HCT-116 colon
[37] = system: KM12 colon
[38] = system: CAKI-1 renal
[39] = system: OVCAR-8 ovarian
[40] = system: MALME-3M melanoma
[41] = system: HOP-92 NSCLC
[42] = system: IGROV1 ovarian
[43] = system: SNB-75 CNS
[44] = system: NCI-H226 lung
[45] = system: BT-549 breast
[46] = system: CCRF-CEM leukemia
[47] = system: RPMI-8226 leukemia
[48] = system: OVCAR-5 ovarian
[49] = system: NCI-H23 lung
[50] = system: COLO 205 colon
[51] = system: UACC-62 melanoma
[52] = system: A498 renal
[53] = system: MDA-MB-468 breast
[54] = system: SK-MEL-28 melanoma
[55] = system: K-562 leukemia
[56] = system: UO-31 renal
[57] = system: SN12C renal

SMILES: O=c1oc2ccc(-c3ccc(F)cc3F)cc2c(=O)n1-c1ccc(F)c(Cl)c1
- GI50 [1]: 2.93 µM
- TGI [1]: 9.93 µM
- GI50 [2]: 2.38 µM
- TGI [2]: 7.2 µM
- GI50 [3]: 2.96 µM
- TGI [3]: 20.5 µM
- GI50 [4]: 1.85 µM
- TGI [4]: 6.39 µM
- GI50 [5]: 2.41 µM
- TGI [5]: 6.33 µM
- GI50 [6]: 2.07 µM
- TGI [6]: 6.51 µM
- GI50 [7]: 3.83 µM
- TGI [7]: 45.1 µM
- GI50 [8]: 1.37 µM
- TGI [8]: 3.77 µM
- GI50 [9]: 3.16 µM
- TGI [9]: 10.4 µM
- GI50 [10]: 2.58 µM
- TGI [10]: 7.95 µM
- GI50 [11]: 2.42 µM
- TGI [11]: 7.45 µM
- GI50 [12]: 3.42 µM
- TGI [12]: 12.4 µM
- GI50 [13]: 3.79 µM
- TGI [13]: 23.8 µM
- GI50 [14]: 3.24 µM
- TGI [14]: 39.6 µM
- GI50 [15]: 4.12 µM
- TGI [15]: 25.3 µM
- GI50 [16]: 3.06 µM
- TGI [16]: 10.1 µM
- GI50 [17]: 1.77 µM
- TGI [17]: 5.67 µM
- GI50 [18]: 3.69 µM
- TGI [18]: 12.2 µM
- GI50 [19]: 2.68 µM
- TGI [19]: 7.72 µM
- GI50 [20]: 3.27 µM
- TGI [20]: 56.9 µM
- GI50 [21]: 1.46 µM
- TGI [21]: 3.03 µM
- GI50 [22]: 2.87 µM
- TGI [22]: 15 µM
- GI50 [23]: 3.43 µM
- TGI [23]: 13 µM
- GI50 [24]: 2.28 µM
- TGI [24]: 6.71 µM
- GI50 [25]: 3.17 µM
- TGI [25]: 14.9 µM
- GI50 [26]: 2.9 µM
- TGI [26]: 11.7 µM
- GI50 [27]: 3.13 µM
- TGI [27]: 11.9 µM
- GI50 [28]: 2.38 µM
- TGI [28]: 6.66 µM
- GI50 [29]: 2.69 µM
- TGI [29]: 11.6 µM
- GI50 [30]: 3.18 µM
- TGI [30]: 13.7 µM
- GI50 [31]: 3.11 µM
- TGI [31]: 9.19 µM
- GI50 [32]: 9.51 µM
- TGI [32]: 27.3 µM
- GI50 [33]: 2.09 µM
- TGI [33]: 4.56 µM
- GI50 [34]: 3.28 µM
- TGI [34]: 11.1 µM
- GI50 [35]: 3 µM
- TGI [35]: 21.3 µM
- GI50 [36]: 3.01 µM
- TGI [36]: 10.1 µM
- GI50 [37]: 2.97 µM
- TGI [37]: 9.62 µM
- GI50 [38]: 1.72 µM
- TGI [38]: 5.11 µM
- GI50 [39]: 3.55 µM
- TGI [39]: 25.4 µM
- GI50 [40]: 2.03 µM
- TGI [40]: 5.65 µM
- GI50 [41]: 0.808 µM
- TGI [41]: 4.78 µM
- GI50 [42]: 3.49 µM
- TGI [42]: 17.4 µM
- GI50 [43]: 1.59 µM
- TGI [43]: 5.77 µM
- GI50 [44]: 1.98 µM
- TGI [44]: 7.01 µM
- GI50 [45]: 1.8 µM
- TGI [45]: 4.14 µM
- GI50 [46]: 3.69 µM
- TGI [46]: 35.4 µM
- GI50 [47]: 1.62 µM
- TGI [47]: 6.62 µM
- GI50 [48]: 3.68 µM
- TGI [48]: 20.6 µM
- GI50 [49]: 2.21 µM
- TGI [49]: 6.45 µM
- GI50 [50]: 12.3 µM
- TGI [50]: 26.2 µM
- GI50 [51]: 1.88 µM
- TGI [51]: 5.01 µM
- GI50 [52]: 2.25 µM
- TGI [52]: 6.36 µM
- GI50 [53]: 2.25 µM
- TGI [53]: 5.84 µM
- GI50 [54]: 3.29 µM
- TGI [54]: 12.7 µM
- GI50 [55]: 2.12 µM
- TGI [55]: > 100 µM
- GI50 [56]: 2.4 µM
- TGI [56]: 9.98 µM
- GI50 [57]: 2.16 µM
- TGI [57]: 8.67 µM

— PubChem BioAssay (NCI)
